In US4943570A, “Benzimidazolesulfonamides and imidazopyridinesulfonamides, and their application as drugs” (Laboratorios Del Dr. Esteve, S.A., priority 1986, dated 1990) one finds ED50 and inhibition in vivo data, which are given here for 32 molecules.

The test system of the experiment is gastric acid secretion. Description: Inhibition of gastric acid secretion in Shay rats (Shay's method, pylorus ligation). Format: in vivo, Male Wistar rats. The conditions noted are these: Rattus norvegicus, administered intraduodenally; for ED50: 2 h; for inhibition in vivo at 40 mg/kg: intraduodenal, 2 h after pylorus ligation, read-out: Percentage inhibition of gastric acid secretion. The source says: Shay's method [H. Shay; S. A. Komarov; S. S. Fels; D. Merange: M. Grvenstein; H. Siplet: Gastroenterology, 5, 43 (1945)--F. E. Visscber; P. H. Seay: A. P. Taxelaar; W. Veldkamp; M. J. Vander Brook: J. Pharmac. Exp. Ther., 110, 188 (1954)--"Animal Experiments in Pharmacological Analysis", F. R. Domer: C. C. Thomas, published by Springfield, Ill., U.S.A., 1970, p. 140].
Male Wistar rats weighing 200 to 250 grams are used in this test; they are fasted from the day preceding the day of the test, with free access to water. Groups containing a minimum of 4 animals each are used.
The rats are anesthetized with ethyl ether, a laparotomy is performed on them and their pylorus is ligated; the abdominal incision is then sewn up. The administration of the products, with the vehicle for the control group, is effected intraduodenally (i.d.) before the abdominal incision is sewn up. The dose administered in the first test is 40 mg/kg and the 50% effective dose (ED50), administered intraduodenally, is also determined in a second test. The vehicle used is gum arabic at a concentration of 5% w/v in double-distilled water.
Two hours after ligation of the pylorus, the rats are sacrificed by prolonged anesthesia with ethyl ether and the volume of gastric juice is measured; the total acidity is determined by means of a pH meter equipped with an automatic burette. For each product and each dose tested, the percentage inhibition of gastric acid secretion is determined relative to the control group.

Take `CCNS(=O)(=O)c1nc2cc(C(=O)c3ccccc3)ccc2[nH]1` [Example 1, 5-benzoyl-N-ethyl-1H-benzimidazole-2-sulfonamide]: it took a dose of 22.4 mg/kg to reach the 50% effect level (ED50) and the inhibition in vivo at 40 mg/kg is 78.7%.
In the same order, the values of `O=S(=O)(Nc1ccccn1)c1nc2ccccc2[nH]1` [Example 5, N-(2-Pyridyl)-1H-benzimidazole-2-sulfonamide] are 10.8 mg/kg and 96.4%.
In the same order, the values of `COc1ccc(CCNS(=O)(=O)c2nc3ccccc3[nH]2)cc1OC` [Example 11, N-[2-(3,4-Dimethoxyphenylethyl)]-1H-benzimidazole-2-sulfonamide] are 42 mg/kg and 48.8%.
In the same order, the values of `CCCCNS(=O)(=O)c1nc2ccccc2[nH]1` [Example 14, N-Butyl-1H-benzimidazole-2-sulfonamide] are 30.6 mg/kg and 61.4%.
Turning to `CCNS(=O)(=O)c1nc2cc(C(F)(F)F)ccc2[nH]1` [Example 26, N-Ethyl-5-trifluoromethyl-1H-benzimidazole-2-sulfonamide], the ED50 (as a rule, the midpoint of the dose-response relation) was determined as 38.5 mg/kg and the inhibition in vivo at 40 mg/kg worked out at 53%.
In the same order, the values of `O=S(=O)(c1nc2ccccc2[nH]1)N1CCCCC1CO` (stereo not shown) [Example 28, 2-(Sulfonyl-2-hydroxymethyl-1-piperidinyl)-1H-benzimidazole] are 38.5 mg/kg and 51.4%.
In the same order, the values of `COc1ccc(CNS(=O)(=O)c2nc3ccccc3[nH]2)cc1` [Example 29, N-(4-Methoxybenzyl)-1H-benzimidazole-2-sulfonamide] are 37.9 mg/kg and 54.2%.
In the same order, the values of `O=[N+]([O-])c1ccc2[nH]c(S(=O)(=O)NCCN3CCOCC3)nc2c1` [Example 36, N-[2-(4-Morpholinoethyl)]-5-nitro-1H-benzimidazole-2-sulfonamide] are 65.6 mg/kg and 40%.
As for `CCNS(=O)(=O)c1nc2ccccc2n1CC` [Example 62, 1,N-diethyl-1H-benzimidazole-2-sulfonamide], the ED50 was 31 mg/kg and the inhibition in vivo at 40 mg/kg turned out to be 52.4%.
In the same order, the values of `CCN(CC)S(=O)(=O)c1nc2ccccc2n1CC` [Example 63, 1,N,N-Triethyl-1H-benzimidazole-2-sulfonamide] are 49.2 mg/kg and 52%.
On to `CCN(CC)CCCC(C)NS(=O)(=O)c1nc2cc(Cl)ccc2n1CC` (stereo not shown) [Example 68, 5-Chloro-N-(4-diethylamino-1-methylbutyl)-1-ethyl-1H-benzimidazole-2-sulfonamide], for which it took a dose of 39.7 mg/kg to reach the 50% effect level (ED50) and the inhibition in vivo at 40 mg/kg is 53.8%.
In the same order, the values of `CCN(CC)CCCC(C)NS(=O)(=O)c1nc2ccc(Cl)cc2n1CC` (stereo not shown) [Example 69, 6-Chloro-N-(4-diethylamino-1-methylbutyl)-1-ethyl-1H-benzimidazole-2-sulfonamide] are 39.2 mg/kg and 54.3%.
For `CCN(CC)CCCC(C)N(CC)S(=O)(=O)c1nc2cc(Cl)ccc2n1CC` (stereo not shown) [Example 73, 5-Chloro-1,N-diethyl-N-(4-diethylamino-1-methylbutyl)-1H-benzimidazole-2-sulfonamide], it took a dose of 18.5 mg/kg to reach the 50% effect level (ED50) and the inhibition in vivo at 40 mg/kg was 77.5%.
Consider `CCN(CC)CCCC(C)N(CC)S(=O)(=O)c1nc2ccc(Cl)cc2n1CC` (stereo not shown) [Example 74, 6-Chloro-1,N-diethyl-N-(4-diethylamino-1-methylbutyl)-1H-benzimidazole-2-sulfonamide], for which it took a dose of 17.9 mg/kg to reach the 50% effect level (ED50) and the inhibition in vivo at 40 mg/kg was found to be 76.4%.
For `CCN1CCCn2c(nc3ccccc32)S1(=O)=O` [Example 90, 3,4,5-Trihydro-2H-2-ethyl-[1,2,6]-thiadiazepino[6,7-a]-benzimidazole 1,1-dioxide], the ED50 was 64 mg/kg and the inhibition in vivo at 40 mg/kg was determined as 51.4%.
In the same order, the values of `CCCCN1CCn2c(nc3ccccc32)S1(=O)=O` [Example 100, 2H-2-Butyl-3,4-Dihydro-[1,2,5]-thiadiazino[5,6-a]-benzimidazole 1,1-dioxide] are 37.6 mg/kg and 51.8%.
As to `CCN(CC)CCCC(C)N1CCn2c(nc3cc(Cl)ccc32)S1(=O)=O` (stereo not shown) [Example 102, 8-Chloro-3,4-dihydro-2H-2-(4-diethylamino-1-methylbutyl)-[1,2,5]-thiadiazino[5,6-a]benzimidazole 1,1-dioxide], the 50% effect level (ED50) was put at a dose of 14.1 mg/kg and the inhibition in vivo at 40 mg/kg stood at 71.4%.
In the same order, the values of `CCN(CC)CCCC(C)N1CCn2c(nc3ccc(Cl)cc32)S1(=O)=O` (stereo not shown) [Example 103, 7-chloro-3,4-dihydro-2H-2-(4-diethylamino-1-methylbutyl)-[1,2,5]-thiadiazino[5,6-a]benzimidazole 1,1-dioxide] are 15 mg/kg and 72.3%.
In the same order, the values of `CCN1CCn2c(nc3cc(C(=O)c4ccccc4)ccc32)S1(=O)=O` [Example 115, 8-Benzoyl-3,4-dihydro-2H-2-ethyl-[1,2,5]-thiadiazino-[5,6-a]benzimidazole 1,1-dioxide] are 38.9 mg/kg and 51.1%.
As for `CCN1CCn2c(nc3ccc(C(=O)c4ccccc4)cc32)S1(=O)=O` [Example 116, 7-Benzoyl-3,4-dihydro-2H-2-ethyl-[1,2,5]-thiadiazino-[5,6-a]benzimidazole 1,1-dioxide], the ED50 was found to be 39.4 mg/kg and the inhibition in vivo at 40 mg/kg was found to be 50.3%.
In the same order, the values of `O=[N+]([O-])c1ccc2c(c1)nc1n2CCN(CCCN2CCOCC2)S1(=O)=O` [Example 141, 3,4-Dihydro-2H-2-[3-(4-morpholinopropyl)]-8-nitro-[1,2,5]-thiadiazino[5,6-a]benzimidazole 1,1-dioxide] are 16.3 mg/kg and 80.9%.
For `CCN(CC)CCCC(C)N1CCn2c(nc3cc([N+](=O)[O-])ccc32)S1(=O)=O` (stereo not shown) [Example 143, 2H-2-(4-Diethylamino-1-methylbutyl)-3,4-dihydro-8-nitro-[1,2,5]-thiadiazino[5,6-a]benzimidazole 1,1-dioxide], the 50% effect level (ED50) was put at a dose of 20.5 mg/kg and the inhibition in vivo at 40 mg/kg was determined as 99.3%.
In the same order, the values of `O=[N+]([O-])c1ccc2c(c1)nc1n2CCNS1(=O)=O` [Example 145, 3,4-Dihydro-2H-8-nitro-[1,2,5]-thiadiazino[5,6-a]-benzimidazole 1,1-dioxide] are 19.8 mg/kg and 68.7%.
In the same order, the values of `O=[N+]([O-])c1ccc2nc3n(c2c1)CCNS3(=O)=O` [Example 146, 3,4-Dihydro-2H-7-nitro-[1,2,5]-thiadiazino[5,6-a]-benzimidazole 1,1-dioxide] are 20.3 mg/kg and 67.5%.
For `O=[N+]([O-])c1ccc2c(c1)nc1n2CCN(C23CC4CC(CC(C4)C2)C3)S1(=O)=O` [Example 147, 2H-2-(1-Adamantyl)-3,4-dihydro-8-nitro-[1,2,5]-thiadiazino[5,6-a]benzimidazole 1,1-dioxide], it took a dose of 44 mg/kg to reach the 50% effect level (ED50) and the inhibition in vivo at 40 mg/kg was 46.5%.
In the same order, the values of `O=[N+]([O-])c1ccc2nc3n(c2c1)CCN(C12CC4CC(CC(C4)C1)C2)S3(=O)=O` [Example 148, 2H-2-(1-Adamantyl)-3,4-dihydro-7-nitro-[1,2,5]-thiadiazino[5,6-a]benzimidazole 1,1-dioxide] are 46 mg/kg and 45.3%.
On to `CCN1CCn2c(nc3ccc(N)cc32)S1(=O)=O` [Example 149, 7-amino-3,4-dihydro-2H-2-ethyl-[1,2,5]-thiadiazino[5,6-a]benzimidazole 1,1 dioxide], for which the ED50 was 32.6 mg/kg and the inhibition in vivo at 40 mg/kg came out at 64%.
In the same order, the values of `CCN1CCn2c(nc3ccc(NC(C)=O)cc32)S1(=O)=O` [Example 150, 7-acetylamino-3,4-dihydro-2H-2-ethyl-[1,2,5]-thiadiazino[5,6-a]benzimidazole 1,1-dioxide] are 41.6 mg/kg and 53.4%.
In the same order, the values of `CCN1C(C)Cn2c(nc3ccccc32)S1(=O)=O` (stereo not shown) [Example 170, 3,4-Dihydro-2H-2-ethyl-3-methyl-[1,2,5]-thiadiazino[5,6-a]benzimidazole 1,1-dioxide] are 21.8 mg/kg and 73.2%.
In the same order, the values of `CCCCN1CCn2c(nc3cccnc32)S1(=O)=O` [Example 173, 2H-2-Butyl-3,4-Dihydropyrido[3', 2':4,5]imidazo[1,2-e]-[1,2,5]-thiadiazine 1,1-dioxide] are 39.2 mg/kg and 57.1%.
Consider `CCN1C(c2ccccc2)=Cn2c(nc3ccccc32)S1(=O)=O` [Example 177, 2H-2-ethyl-3-phenyl-[1,2,5]-thiadiazino[5,6-a]benzimidazole 1,1-dioxide], for which the 50% effect level (ED50) was put at a dose of 38.1 mg/kg and the inhibition in vivo at 40 mg/kg stood at 53.7%.
In the same order, the values of `O=S1(=O)c2nc3ccccc3n2CC2CCCCN21` (stereo not shown) [Example 180, 1,2,3,4,13,14-hexahydropyrido-[1',2':2,3]-[1,2,5]-thiadiazino[5,6-a]-benzimidazole 6,6-dioxide] are 43.7 mg/kg and 43.8%.
